Measured values reported in ChEMBL document CHEMBL4043136, “Chiral-pool synthesis of 1,2,4-trisubstituted 1,4-diazepanes as novel σ1 receptor ligands” (Bioorg Med Chem, 2017).
Activity calls are given as the source filed them. No cut-off for these calls is given here.

Tests used:
[1] = molecular target: C-X-C chemokine receptor type 2 (Homo sapiens) (UniProt P25025); test: Displacement of [125I]-IL-8 from CXCR2 receptor (unknown origin) at 1 uM
Homo sapiens [2] = species: Homo sapiens; test: Displacement of [3H]-CGP-39653 from glutamate […] receptor (unknown origin) at 1 uM
[3] = molecular target: Adenosine receptor A1 (Homo sapiens) (UniProt P30542); test: Displacement of [3H]-DPCPX from adenosine A1 receptor (unknown origin) at 1 uM
Sequence of Adenosine receptor A1 (Homo sapiens) (P30542 whole entry): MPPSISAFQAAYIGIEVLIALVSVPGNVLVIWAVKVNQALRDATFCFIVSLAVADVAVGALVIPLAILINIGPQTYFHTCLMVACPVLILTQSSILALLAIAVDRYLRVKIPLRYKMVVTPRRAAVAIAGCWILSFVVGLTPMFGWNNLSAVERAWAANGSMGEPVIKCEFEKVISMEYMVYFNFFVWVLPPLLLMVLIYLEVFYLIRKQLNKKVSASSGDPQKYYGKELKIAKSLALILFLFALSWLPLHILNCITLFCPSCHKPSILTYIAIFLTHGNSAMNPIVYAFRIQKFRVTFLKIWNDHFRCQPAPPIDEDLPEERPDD

[4] = molecular target: Substance-P receptor (Homo sapiens) (UniProt P25103); test: Displacement of [3H]-SR-140333 from tachykinin NK1 receptor (unknown origin) at 1 uM
Homo sapiens [5] = species: Homo sapiens; test: Displacement of [3H]-flunitrazepam from […] GABAA receptor (unknown origin) at 1 uM
Histamine H2 receptor [6] = molecular target: T1, Histamine H2 receptor (Homo sapiens, UniProt P25021); test: Displacement of [125I]-aminopotentidine receptor from histamine H2 receptor (unknown origin) at 1 uM
T1 sequence (P25021 whole entry): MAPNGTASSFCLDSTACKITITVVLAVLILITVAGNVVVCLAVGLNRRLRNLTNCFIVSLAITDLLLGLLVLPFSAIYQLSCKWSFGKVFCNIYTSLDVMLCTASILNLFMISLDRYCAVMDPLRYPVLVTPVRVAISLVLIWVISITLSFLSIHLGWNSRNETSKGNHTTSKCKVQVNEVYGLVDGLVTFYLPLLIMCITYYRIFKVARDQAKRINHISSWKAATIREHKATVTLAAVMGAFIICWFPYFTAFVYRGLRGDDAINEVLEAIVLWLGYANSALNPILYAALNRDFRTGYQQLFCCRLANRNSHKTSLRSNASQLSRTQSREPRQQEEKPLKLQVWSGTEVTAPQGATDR

[7] = molecular target: Metabotropic glutamate receptor 5 (Homo sapiens) (UniProt P41594); test: Displacement of [3H]-quisqulic acid from metabotropic glutamate receptor 5 (unknown origin) at 1 uM
Sequence of Metabotropic glutamate receptor 5 (Homo sapiens) (P41594 21-1212 limits assumed): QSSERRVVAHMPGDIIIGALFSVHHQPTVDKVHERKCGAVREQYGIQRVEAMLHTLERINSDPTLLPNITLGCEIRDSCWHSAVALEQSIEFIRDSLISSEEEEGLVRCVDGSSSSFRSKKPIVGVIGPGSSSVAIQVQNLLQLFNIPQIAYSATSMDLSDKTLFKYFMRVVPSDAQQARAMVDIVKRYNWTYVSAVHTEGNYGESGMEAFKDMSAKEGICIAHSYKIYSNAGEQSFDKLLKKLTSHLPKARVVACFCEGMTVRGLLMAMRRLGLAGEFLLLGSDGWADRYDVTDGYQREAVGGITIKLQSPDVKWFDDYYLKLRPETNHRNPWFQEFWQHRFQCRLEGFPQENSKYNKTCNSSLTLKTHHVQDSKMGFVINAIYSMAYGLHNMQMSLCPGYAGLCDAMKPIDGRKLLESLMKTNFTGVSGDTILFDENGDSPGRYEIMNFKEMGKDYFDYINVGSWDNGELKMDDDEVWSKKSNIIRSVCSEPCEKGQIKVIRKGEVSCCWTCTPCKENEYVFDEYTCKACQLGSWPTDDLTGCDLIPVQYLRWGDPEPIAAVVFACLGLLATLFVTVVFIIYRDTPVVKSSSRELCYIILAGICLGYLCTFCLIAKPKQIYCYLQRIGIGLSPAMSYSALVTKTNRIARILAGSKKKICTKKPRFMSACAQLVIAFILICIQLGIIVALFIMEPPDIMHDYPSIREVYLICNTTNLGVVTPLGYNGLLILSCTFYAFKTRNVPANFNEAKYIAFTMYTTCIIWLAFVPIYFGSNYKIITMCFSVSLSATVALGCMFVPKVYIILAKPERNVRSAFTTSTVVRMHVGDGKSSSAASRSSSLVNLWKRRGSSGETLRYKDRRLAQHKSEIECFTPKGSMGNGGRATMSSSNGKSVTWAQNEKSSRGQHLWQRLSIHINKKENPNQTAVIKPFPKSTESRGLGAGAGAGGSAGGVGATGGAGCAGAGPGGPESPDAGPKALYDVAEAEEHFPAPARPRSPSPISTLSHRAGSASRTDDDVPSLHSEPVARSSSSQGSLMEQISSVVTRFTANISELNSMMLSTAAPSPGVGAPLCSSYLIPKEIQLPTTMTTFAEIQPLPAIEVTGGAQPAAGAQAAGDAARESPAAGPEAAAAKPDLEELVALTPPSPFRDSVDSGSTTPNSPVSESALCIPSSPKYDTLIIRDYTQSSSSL

[8] = molecular target: Histamine H3 receptor (Homo sapiens) (UniProt Q9Y5N1); test: Displacement of [3H]-R(-)-alpha-methylhistamine from histamine H3 receptor (unknown origin) at 1 uM
[9] = molecular target: 5-hydroxytryptamine receptor 3A (Homo sapiens) (UniProt P46098); test: Displacement of [3H]-GR-65630 from 5-HT3 receptor (unknown origin) at 1 uM
[10] = molecular target: D(3) dopamine receptor (Homo sapiens) (UniProt P35462); test: Displacement of [3H]-sp iperone from dopamine D3 receptor (unknown origin) at 1 uM
Sequence of D(3) dopamine receptor (Homo sapiens) (P35462 whole entry): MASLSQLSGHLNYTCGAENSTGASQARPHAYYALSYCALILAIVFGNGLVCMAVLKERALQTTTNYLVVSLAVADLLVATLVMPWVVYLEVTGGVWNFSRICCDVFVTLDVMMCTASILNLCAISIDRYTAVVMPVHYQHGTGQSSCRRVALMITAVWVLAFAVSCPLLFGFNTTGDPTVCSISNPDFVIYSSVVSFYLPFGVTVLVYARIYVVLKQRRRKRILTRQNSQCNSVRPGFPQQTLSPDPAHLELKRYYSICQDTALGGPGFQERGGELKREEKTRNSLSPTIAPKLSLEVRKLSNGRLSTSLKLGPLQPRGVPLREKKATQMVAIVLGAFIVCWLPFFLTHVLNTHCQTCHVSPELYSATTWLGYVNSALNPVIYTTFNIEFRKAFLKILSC

[11] = molecular target: Beta-1 adrenergic receptor (Homo sapiens) (UniProt P08588); test: Displacement of [125I]-cyanopindolol from adrenergic beta1 receptor (unknown origin) at 1 uM
Mus musculus [12] = test: Toxicity in mouse assessed as writhing at 100 mg/kg, ip by Irwin test; type: organism-based; conditions: in vivo
[13] = molecular target: Alpha-1B adrenergic receptor (Homo sapiens) (UniProt P35368); test: Displacement of [3H]-prazosin from adrenergic alpha1B receptor (unknown origin) at 1 uM
Homo sapiens [14] = species: Homo sapiens; test: Displacement of [3H]-alpha-5-methylene-ATP from purinergic P2x receptor (unknown origin) at 1 uM
[15] = molecular target: Estrogen receptor (Homo sapiens) (UniProt P03372); test: Displacement of [3H]-estradiol from estrogen ERalpha receptor (unknown origin) at 1 uM
[16] = molecular target: Gastrin-releasing peptide receptor (Homo sapiens) (UniProt P30550); test: Displacement of [125I]-(Tyr4)-bombesin from bombesin BB2 receptor (unknown origin) at 1 uM
Sequence of Gastrin-releasing peptide receptor (Homo sapiens) (P30550 whole entry, looked up): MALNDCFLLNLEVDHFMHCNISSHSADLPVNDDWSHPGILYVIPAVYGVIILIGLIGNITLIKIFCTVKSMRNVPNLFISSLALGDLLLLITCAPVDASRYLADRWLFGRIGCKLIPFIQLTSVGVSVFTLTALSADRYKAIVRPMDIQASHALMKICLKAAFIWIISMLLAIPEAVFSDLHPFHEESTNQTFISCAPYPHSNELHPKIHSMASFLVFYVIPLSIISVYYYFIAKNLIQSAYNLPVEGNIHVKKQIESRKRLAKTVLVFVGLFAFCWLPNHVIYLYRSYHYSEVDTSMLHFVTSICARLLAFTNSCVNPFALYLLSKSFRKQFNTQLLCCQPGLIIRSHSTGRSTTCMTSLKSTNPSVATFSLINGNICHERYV

Mus musculus [17] = test: Toxicity in mouse assessed as increase in abdominal tone at 100 mg/kg, ip by Irwin test; type: organism-based; conditions: in vivo
[18] = molecular target: Endothelin-1 receptor (Homo sapiens) (UniProt P25101); test: Displacement of [125I]-endothelin-1 from endothelin ETA receptor (unknown origin) at 1 uM
Sequence of Endothelin-1 receptor (Homo sapiens) (P25101 whole entry): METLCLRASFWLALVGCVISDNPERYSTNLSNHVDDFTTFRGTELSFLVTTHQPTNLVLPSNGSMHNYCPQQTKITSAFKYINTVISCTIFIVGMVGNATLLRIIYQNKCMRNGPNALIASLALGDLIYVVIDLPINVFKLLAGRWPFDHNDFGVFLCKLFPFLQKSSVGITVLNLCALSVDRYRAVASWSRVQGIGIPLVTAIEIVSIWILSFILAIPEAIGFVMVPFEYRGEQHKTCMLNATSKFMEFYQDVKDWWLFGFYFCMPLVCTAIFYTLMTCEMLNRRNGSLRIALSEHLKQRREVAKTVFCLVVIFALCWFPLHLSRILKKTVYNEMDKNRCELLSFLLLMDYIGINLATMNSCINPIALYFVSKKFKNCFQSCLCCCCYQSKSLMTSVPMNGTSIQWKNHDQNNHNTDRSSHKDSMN

Rattus norvegicus = test: Analgesic activity in rat assessed as inhibition of formalin-induced pain by measuring time spent licking injected paw in late phase (10 to 35 min) administered at 10 mg/kg by two-phase analgesic formalin assay; type: functional, organism-based
Histamine H2 receptor [19] = molecular target: T1, Histamine H2 receptor; test: Displacement of [125I]-aminopotentidine receptor from histamine H2 receptor (unknown origin)
[20] = molecular target: Muscarinic acetylcholine receptor M2 (Homo sapiens) (UniProt P08172); test: Displacement of [3H]-N-methylscopolamine from muscarinic M2 receptor (unknown origin) at 1 uM
Sequence of Muscarinic acetylcholine receptor M2 (Homo sapiens) (P08172 whole entry): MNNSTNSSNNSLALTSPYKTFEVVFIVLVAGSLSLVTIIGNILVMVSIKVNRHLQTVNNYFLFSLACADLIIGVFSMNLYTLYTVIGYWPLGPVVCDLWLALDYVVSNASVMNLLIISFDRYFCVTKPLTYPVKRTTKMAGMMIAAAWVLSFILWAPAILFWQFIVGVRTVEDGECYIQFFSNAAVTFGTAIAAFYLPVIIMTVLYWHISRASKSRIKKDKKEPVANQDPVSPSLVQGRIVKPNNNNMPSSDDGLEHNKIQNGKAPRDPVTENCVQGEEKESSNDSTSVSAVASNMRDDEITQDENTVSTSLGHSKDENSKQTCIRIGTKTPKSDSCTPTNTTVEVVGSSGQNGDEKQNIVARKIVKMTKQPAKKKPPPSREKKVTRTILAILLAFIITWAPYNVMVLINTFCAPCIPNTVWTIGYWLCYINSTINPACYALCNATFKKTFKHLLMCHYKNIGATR

CYP2C9 = CYP2C9 (Homo sapiens, UniProt P11712); test: Inhibition on CYP2C9 (unknown origin) at 1 uM; type: ADME
[21] = molecular target: Muscarinic acetylcholine receptor M3 (Homo sapiens) (UniProt P20309); test: Displacement of [3H]-N-methylscopolamine from muscarinic M3 receptor (unknown origin) at 1 uM
Sequence of Muscarinic acetylcholine receptor M3 (Homo sapiens) (P20309 whole entry, looked up): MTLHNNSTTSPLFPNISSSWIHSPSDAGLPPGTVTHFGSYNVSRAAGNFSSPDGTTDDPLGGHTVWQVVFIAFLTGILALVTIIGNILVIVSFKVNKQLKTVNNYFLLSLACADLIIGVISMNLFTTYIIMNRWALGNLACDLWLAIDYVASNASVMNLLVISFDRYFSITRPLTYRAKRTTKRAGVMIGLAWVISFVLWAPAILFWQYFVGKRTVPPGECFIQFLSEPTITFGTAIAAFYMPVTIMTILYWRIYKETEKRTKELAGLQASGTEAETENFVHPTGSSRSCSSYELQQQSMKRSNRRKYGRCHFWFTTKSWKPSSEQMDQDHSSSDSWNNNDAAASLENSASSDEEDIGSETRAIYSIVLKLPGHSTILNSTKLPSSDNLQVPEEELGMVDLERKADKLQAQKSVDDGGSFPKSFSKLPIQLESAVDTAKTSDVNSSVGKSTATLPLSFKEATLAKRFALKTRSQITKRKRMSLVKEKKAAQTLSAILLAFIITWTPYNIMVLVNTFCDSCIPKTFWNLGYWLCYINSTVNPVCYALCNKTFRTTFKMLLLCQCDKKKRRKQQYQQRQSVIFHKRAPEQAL

[22] = molecular target: Delta-type opioid receptor (Homo sapiens) (UniProt P41143); test: Displacement of [3H]-naltrindole from delta opioid receptor (unknown origin) at 1 uM
[23] = molecular target: Neuromedin-B receptor (Homo sapiens) (UniProt P28336); test: Displacement of [125I]-(Tyr4)-bombesin from bombesin BB1 receptor (unknown origin) at 1 uM
Sequence of Neuromedin-B receptor (Homo sapiens) (P28336 whole entry, looked up): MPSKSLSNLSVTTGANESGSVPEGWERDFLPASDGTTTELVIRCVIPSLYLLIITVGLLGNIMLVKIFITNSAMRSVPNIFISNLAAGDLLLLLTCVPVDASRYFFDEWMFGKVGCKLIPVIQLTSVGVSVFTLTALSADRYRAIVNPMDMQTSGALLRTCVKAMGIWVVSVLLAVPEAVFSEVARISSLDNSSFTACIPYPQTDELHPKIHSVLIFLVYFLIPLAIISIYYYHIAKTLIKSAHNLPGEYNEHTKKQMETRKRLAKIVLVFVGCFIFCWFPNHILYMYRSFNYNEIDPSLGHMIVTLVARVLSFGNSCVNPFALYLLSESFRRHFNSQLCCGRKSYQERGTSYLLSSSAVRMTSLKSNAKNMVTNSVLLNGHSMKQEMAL

[24] = Metabolic stability in mouse microsomes assessed as amount of parent compound remaining after 5 mins; type: ADME, Microsome; conditions: read-out: Stability
Homo sapiens [25] = species: Homo sapiens; test: Displacement of [3H]-Idazoxan from imidazoline I2 receptor (unknown origin) at 1 uM
[26] = Metabolic stability in rat microsomes assessed as amount of parent compound remaining after 5 mins; type: ADME, Microsome; conditions: read-out: Stability
[27] = molecular target: Adenosine receptor A2a (Homo sapiens) (UniProt P29274); test: Displacement of [3H]-CGS21680 from adenosine A2A receptor (unknown origin) at 1 uM
Homo sapiens [28] = species: Homo sapiens; test: Displacement of [35S]-ATP-alpha-S from purinergic P2y receptor (unknown origin) at 1 uM
Mus musculus [29] = test: Toxicity in mouse assessed as diarrhea at 30 mg/kg, ip measured for 60 mins by Irwin test; type: organism-based; conditions: in vivo, 1 h
[30] = molecular target: Glucocorticoid receptor (Homo sapiens) (UniProt P04150); test: Displacement of [3H]-dexamethasone from glucocorticoid receptor (unknown origin) at 1 uM
[31] = molecular target: Glutamate [NMDA] receptor (Homo sapiens) (UniProt Q05586+Q12879+Q13224+O15399+O60391+Q14957+Q8TCU5); test: Displacement of [3H]-TCP from glutamate NMDA receptor phencyclidine binding site (unknown origin) at 1 uM
[32] = molecular target: Sigma non-opioid intracellular receptor 1 (Cavia porcellus) (UniProt Q60492); test: Agonist activity at sigma1 receptor assessed as potentiation of electrically stimulated contractions of the guinea pig vas deferens at 30 uM relative to (S)-3-PPP
Homo sapiens [33] = species: Homo sapiens; test: Displacement of [3H]-muscimol from […] GABAA receptor (unknown origin) at 1 uM

Sequence of C-X-C chemokine receptor type 2 (Homo sapiens) (P25025 whole entry): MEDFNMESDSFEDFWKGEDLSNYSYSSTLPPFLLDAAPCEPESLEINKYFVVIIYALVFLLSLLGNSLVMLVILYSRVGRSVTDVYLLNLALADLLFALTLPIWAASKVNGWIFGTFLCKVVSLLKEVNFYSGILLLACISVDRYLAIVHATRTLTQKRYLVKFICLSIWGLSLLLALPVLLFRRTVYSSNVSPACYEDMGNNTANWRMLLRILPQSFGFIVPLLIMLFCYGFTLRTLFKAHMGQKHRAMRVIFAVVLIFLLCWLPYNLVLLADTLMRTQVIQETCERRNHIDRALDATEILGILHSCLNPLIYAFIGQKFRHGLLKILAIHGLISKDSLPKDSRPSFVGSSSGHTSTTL

For COc1ccc(CN2CCCN(Cc3ccccc3)[C@@H](C)C2)cc1, the inhibition [1] was “inactive”, the inhibition (Homo sapiens [2]) was “inactive” and the inhibition [3] was “inactive”. For the same molecule, the inhibition [4] was “inactive”, the inhibition (Homo sapiens [5]) was “inactive” and the inhibition (Histamine H2 receptor [6]) was 50%. The inhibition [7] was “inactive”, the inhibition [8] was “inactive” and the inhibition [9] was “inactive”. The inhibition [10] was “inactive”, the inhibition [11] was “inactive” and the Activity (Mus musculus [12]) was “Toxic”. The inhibition [13] was “inactive”, the inhibition (Homo sapiens [14]) was “inactive” and the inhibition [15] was “inactive”. The inhibition [16] was “inactive”, the Activity (Mus musculus [17]) was “Toxic” and the inhibition [18] was “inactive”. For the same molecule, the Activity (Rattus norvegicus) was “Active”, the IC50 (Histamine H2 receptor [19]) was 1000 nM and the inhibition [20] was “inactive”. For the same molecule, the inhibition at 1 µM (CYP2C9) was 0%, the inhibition [21] was “inactive” and the inhibition [22] was “inactive”. For the same molecule, the inhibition [23] was “inactive”, the remaining at 5 min [24] was under 50% and the inhibition (Homo sapiens [25]) was “inactive”. For the same molecule, the remaining at 5 min [26] was under 50%, the inhibition [27] was “inactive” and the inhibition (Homo sapiens [28]) was “inactive”. For the same molecule, the Activity (Mus musculus [29]) was “Toxic”, the inhibition [30] was “inactive” and the inhibition [31] was “inactive”. The Activity [32] was 29% and the inhibition (Homo sapiens [33]) was “inactive”.
